Earlier results in patent US7994258B2, “Hyperbranched polymer having nitroxyl group” (Nissan Chemical Industries, Ltd., priority 2007, dated 2011).

Conditions: comparison value, measuring conditions not stated

In the case of `O=C([O-])CN(CCN(CC(=O)[O-])CC(=O)O)CCN(CC(=O)[O-])CC(=O)O.[Gd+3]` [GdDTPA], the “relaxivity (r1) of comparator” value is given as 4.0 mM⁻¹ s⁻¹.
